The values that follow come from patent US10544129B2, “Crystalline forms of AP26113, and preparation method thereof” (Crystal Pharmatech Co., Ltd., priority 2016, dated 2020).

In brackets after ≈: the same amount, converted by molar mass. Read-outs that look alike come from different tables or passages of the source.

Holding throughout (type): physicochemical
Data set [1] in a line: Solubility study in FaSSIF and SGF (saturated solutions, HPLC). The conditions noted are these: for solubility at 1 h / solubility at 4 h: thermodynamic from solid. The method, then:
Samples of Form CS2 of the present disclosure and Form A were suspended in FaSSIF (Fasted state simulated intestinal fluids) and SGF (Simulated gastric fluids) to get saturated solutions. The concentrations of the saturated solutions were measured by high performance liquid chromatography (HPLC) at fixed time points.

Data set [2] in a line: Solubility study in H2O (saturated solutions, HPLC). How it is done:
Samples of Form CS1 of this present disclosure and Form A were suspended in H2O to get saturated solutions. After equilibrated for 1 h and 4 hours, the concentrations of the saturated solutions were measured by high performance liquid chromatography (HPLC).

Data set [3] in a line: Dissolution study (intrinsic dissolution rate, rotating disk). The conditions noted are these: for Cumulative dissolution: phosphate buffer pH 6.8, 37° C.; for intrinsic dissolution rate: linear fit of cumulative dissolution with time, phosphate buffer pH 6.8. How it is done: The dissolution data were collected on an Agilent 708-DS.
100 mg of Form CS2 and Form A were added into the die of intrinsic dissolution rate (IDR) tooling, and then compressed at 12 KN for 1 min.
Dissolution medium: phosphate buffer (pH 6.8)
Dissolution method: rotating disk
Revolving speed: 1000 rpm
Medium temperature: 37° C.

A further data set in a line: Particle size study. How it is done: Particle size distribution of Forms CS1 and Form CS2 of the present disclosure and Form A of the prior art are tested. The average particle size of Form A is 12.58 μm, which is too small to be isolated effectively in the crystallization process. The Average particle sizes of Forms CS1 and Form CS2 are 175.0 μm and 151.9 μm, which are much larger than that of Form A. Compared with Form A, Form CS1 and Form CS2 with large particle size have less electrostatic attraction and can be separated more easily during the crystallization process. Moreover, the mixing non uniformity in the preparation process can be avoided, the quality of the drug is more controllable. At the same time, the crystal growth of the large particle size crystals is more perfect, and the adsorption of the solvent or the impurity on the crystals can be avoided, which is more helpful for purification.

Data set [4] in a line: Stability study at 25° C./60% RH (XRPD, purity). The conditions noted are these: one month and three months. How it is done: Approximately 10 mg of Form CS2 were stored in a temperature and humidity controlled chamber at 25° C./60% RH, and samples were taken for XRPD at the beginning and after stored for one month and three months. The results are as depicted in FIG. 13.

`COc1cc(N2CCC(N3CCN(C)CC3)CC2)ccc1Nc1ncc(Cl)c(Nc2ccccc2P(C)(C)=O)n1` [Form A, AP26113]: the “Solubility FaSSIF” value was determined as 6900 µg/mL (≈ 11.8 mM) in data set [1] (FaSSIF, 1 h) and 7200 µg/mL (≈ 12.3 mM) in data set [1] (FaSSIF, 4 h). The “solubility in SGF (in words)” value in data set [1] (SGF) is reported as “good solubility”. Also, the “Solubility SGF” value came out at 10900 µg/mL (≈ 18.7 mM) in data set [1] (SGF, 1 h) and 10900 µg/mL (≈ 18.7 mM) in data set [1] (SGF, 4 h). The “Solubility H2O” value in data set [2] (1 h) stood at 61 µg/mL (≈ 0.104 mM); in data set [2] (4 h), 67 µg/mL (≈ 0.115 mM). Moreover, the “solubility in water (in words)” value in data set [2] (water) is on record as “poor”. Further, the Cumulative dissolution in data set [3] (10 min) is 0.6 mg; in data set [3] (15 min), 0.9 mg; in data set [3] (20 min), 1.1 mg; in data set [3] (25 min), 1.4 mg; in data set [3] (30 min), 1.6 mg. The compound also came in with an intrinsic dissolution rate in data set [3] of 0.052 mg/min. In “Particle size study”, this compound came in with an average particle size of 12.58 μm.
As to `COc1cc(N2CCC(N3CCN(C)CC3)CC2)ccc1Nc1ncc(Cl)c(Nc2ccccc2P(C)(C)=O)n1` [Form CS1, AP26113], the “Solubility H2O” value is 1000 µg/mL (≈ 1.71 mM) in data set [2] (1 h) and 610 µg/mL (≈ 1.04 mM) in data set [2] (4 h). In addition, the “solubility in water, times higher than that of Form A” value in data set [2] (water, relative to Form A) was 16 times. This compound registered an average particle size in the data set “Particle size study” of 175.0 μm.
By solubility is commonly meant the concentration that dissolves in the medium under given conditions. With `COc1cc(N2CCC(N3CCN(C)CC3)CC2)ccc1Nc1ncc(Cl)c(Nc2ccccc2P(C)(C)=O)n1` [Form CS2, AP26113], in data set [1] (FaSSIF, one hour, relative to Form A), the “solubility higher than that of Form A” value is 43%. Also, the solubility at 1 h is 9900 µg/mL (≈ 16.9 mM) in data set [1] (FaSSIF, FaSSIF, 1 h, read-out: Solubility FaSSIF) and 11200 µg/mL (≈ 19.2 mM) in data set [1] (SGF, simulated gastric fluid, SGF, 1 h, read-out: Solubility SGF). Moreover, the solubility at 4 h in data set [1] (FaSSIF, FaSSIF, 4 h, read-out: Solubility FaSSIF) is 9600 µg/mL (≈ 16.4 mM); in data set [1] (SGF, simulated gastric fluid, SGF, 4 h, read-out: Solubility SGF), 12100 µg/mL (≈ 20.7 mM). Further, the “solubility in SGF (in words)” value in data set [1] (SGF) is “good solubility”. For the same compound, the Cumulative dissolution in data set [3] (10 min) is given as 6.4 mg; in data set [3] (15 min) it was 8.0 mg; in data set [3] (20 min), 9.4 mg; in data set [3] (25 min) it was 10.7 mg; in data set [3] (30 min), 11.8 mg. Further, the intrinsic dissolution rate in data set [3] worked out at 0.268 mg/min. Besides, the “dissolution rate, times higher than that of Form A” value in data set [3] (relative to Form A) is 5 times. In addition, the purity after storage entry in data set [4] (beginning) is “above 99%”. In data set [4], the “crystalline form after storage (XRPD)” value is on record as “doesn't change”. This compound returned an average particle size in the data set “Particle size study” of 151.9 μm.
